Assay results: patent US12012410B2, “Substituted pyrazolo[1,5-a]pyrazines for spinal muscular atrophy” (REBORNA BIOSCIENCES, INC., priority 2018, dated 2024)

Tested on: FL-SMN mRNA (SMN transcript containing exons 7 and 8)
Assay: Live-cell assay to measure changes in FL-SMN mRNA levels (qPCR) after exposure to the compounds
Assay type: cell-based, human
Details: fibroblasts derived from patients SMA (GM03813); 24 hours incubation
Method: In this example, each test compound was administered to cultured cells, and changes in the expression levels of mRNA transcripts of SMN, i.e., FL-SMN containing exons 7 and 8 and Delta7 with exon 7 skipped, were examined using PCR.
Fibroblasts derived from patients SMA (GM03813) (Coriell Cell Repositories) were cultured with passages using DMEM (High Glucose) (Life Technologies) supplemented with 10% FBS (Life Technologies). Cells were seeded in tissue-culture-treated 96-well plates (Corning) at 1.5 or 0.5×10^4 cells/well in 100 μL of medium. The cells were incubated in 5% CO2 for 6 hours, and the medium was replaced with 100 μL of medium (with DMSO, 0.1% final concentration) containing each of the compounds given in the Examples. After additional incubation for 24 hours under the same conditions, the cells were washed once with D-PBS(—) (Wako) and 25 μL/well of the lysis solution (with gDNA Remove) contained in the SuperPrep (registered trademark) Cell Lysis & RT Kit for qPCR (Toyobo life science) was added according to the manufacturer's instructions so that the cells were lysed and the genomic DNA was degraded. Furthermore, 5 μL of the STOP solution (with RNase Inhibitor) contained in the kit was added to provide RNA-containing solutions. Six microliters of the RNA-containing solutions were each mixed with 14 μL of a reverse transcription solution containing transcriptase together with dNTP, random primers and an oligodT primer. Reverse transcription was performed at 37° C. (15 min), 50° C. (5 min), and 98° C. (5 min), to give total cDNAs. The total cDNAs were diluted 30-fold with Ultra-pure water (Invitrogen) to measure the expression levels of FL-SMN, delta7, and GAPDH. For quantitative PCR (qPCR), a PCR solution was prepared according to the instructions of the manufacturer of the THUNDERBIRD (registered trademark) Probe qPCR Mix (Toyobo life science). Five microliters of the diluted total cDNA solutions and oligo DNA standard solutions, each containing either 001-Standard FL-SMN (SEQ ID NO. 1) or 002-Standard delta7 (SEQ ID NO. 2), were each mixed with 10 μL of each of the PCR solutions containing a qPCR probe, primers, and PCR enzyme. […] The oligoDNA standard solutions were prepared as those containing either of 5×10^8, 5×10^7, 5×10^6, 5×10^5, 5×10^4, 5×10^3, 5×10^2, 5×10, 5, or 0 copies. For the oligo DNA standards, primers, and probes, oligonucleotides synthesized by Integrated DNA Technologies, Inc. (IDT) were used. […] FIGS. 3B and 3D show their detection mechanisms. The final concentrations of the primers and probes added were 0.4 μM and 0.15 μM, respectively. The qPCR was performed using the following conditions on a ViiA7 instrument (Applied Biosystems): first stage: 95° C. (1 min)→second stage: 95° C. (15 sec)→third stage: 60° C. (1 min)→40 repeated cycles of the second and third stages. The GAPDH mRNA was used as the internal control, and the commercially available 20×gene expression PCR assay (Life Technologies, 4326317E, Hs99999905_ml) and Standard GAPDH (SEQ ID NO. 7) (see FIG. 1) was used to determine the number of copies of this gene. The measurement values obtained for the samples to be measured were standardized against the respective value obtained for GAPDH.
Using the above-mentioned assays, the activities of the compounds of the Examples were evaluated. Specifically, the percentages of the FL-SMN and delta7 values obtained using DMSO without the compounds and standardized against GAPDH were set as 100% and those of the FL-SMN and delta7 values obtained at the time of administration of the compounds and standardized against GAPDH were calculated. […]

| Structure (SMILES) | Percentage of increase (FL-SMN mRNA standardized against GAPDH, DMSO control set as 100%) |
| --- | --- |
| COc1cc(C2CCN(C)CC2)cc2c(=O)[nH]c(-c3cc4c(C)nc(C)cn4n3)nc12 [Example 52, 2-(4,6-dimethylpyrazolo[1,5-a]pyrazin-2-yl)-8-methoxy-6-(1-methylpiperidin-4-yl)quinazolin-4(3H)-one] | ** (equal to or higher than 120% but lower than 150%) |
| CCN1CCC(c2nc3ccc(-c4cc(F)c5nc(C)oc5c4)cc3c(=O)[nH]2)CC1 [Example 25, 2-(1-ethylpiperidin-4-yl)-6-(4-fluoro-2-methylu 1,3-benzoxazole-6-yl) kinazoline-4 (3H)-one] | **** (equal to or higher than 180%) |
| Cc1cn2cc(-c3ccc4nc(C5CCN(C)CC5)[nH]c(=O)c4c3)c(C)cc2n1 [Example 63, 6-(2,7-dimethylimidazo[1,2-a]pyridin-6-yl)-2-(1-methylpiperidin-4-yl)quinazolin-4(3H)-one] | * (equal to or higher than 100% but lower than 120%) |
| COc1cnc(-c2nc3ccc(N4CCN(C)CC4)cc3c(=O)[nH]2)cc1C [Example 76, 2-(5-methoxy-4-methylpyridin-2-yl)-6-(4-methylpiperazin-1-yl)quinazolin-4(3H)-one] | * (equal to or higher than 100% but lower than 120%) |
| CCN1CCN(c2ccc3nc(-c4cc5c(C)nc(C)cn5n4)[nH]c(=O)c3c2)CC1 [Example 12, 2-(4,6-Dimethylpyrazolo[1,5-a]pyrazin-2-yl)-6-(4-ethylpiperazin-1-yl)quinazolin-4(3H)-one] | **** (equal to or higher than 180%) |
| Cc1nc2ccc(-c3ccc4nc(C5CCN(C)CC5)[nH]c(=O)c4c3)cc2o1 [Example 13, 6-(2-Methyl-1,3-benzoxazol-6-yl)-2-(1-methylpiperidin-4-yl)quinazolin-4(3H)-one] | **** (equal to or higher than 180%) |
| CC[C@H]1CN(C)CCN1c1ccc2nc(-c3cc4c(C)nc(C)cn4n3)[nH]c(=O)c2c1 [Example 129, (S)-2-(4,6-dimethylpyrazolo[1,5-a]pyrazin-2-yl)-6-(2-ethyl-4-methylpiperazin-1-yl)quinazolin-4(3H)-one] | *** (equal to or higher than 150% but lower than 180%) |
| Cc1cn2cc(-c3cc(C)c4nc(C5(F)CCN(C(C)C)CC5)[nH]c(=O)c4n3)cc(F)c2n1 [Example 101, 2-(4-fluoro-1-isopropylpiperidin-4-yl)-6-(8-fluoro-2-methylimidazo[1,2-a]pyridin-6-yl)-8-methylpyrido[3,2-d]pyrimidin-4(3H)-one] | *** (equal to or higher than 150% but lower than 180%) |
| Cc1cn2cc(-c3ccc4c(c3)c(=O)nc(C3CCN(C)CC3)n4C)ccc2n1 [Example 70, 1-methyl-6-(2-methylimidazo[1,2-a]pyridin-6-yl)-2-(1-methylpiperidin-4-yl)quinazolin-4(1H)-one] | * (equal to or higher than 100% but lower than 120%) |
| Cc1cn2cc(-c3ccc4nc(C5CCN(CC(F)(F)F)CC5)[nH]c(=O)c4c3)ccc2n1 [Example 73, 6-(2-methylimidazo[1,2-a]pyridin-6-yl)-2-[1-(2,2,2-trifluoroethyl)piperidin-4-yl]quinazolin-4(3H)-one] | * (equal to or higher than 100% but lower than 120%) |
| Cc1cn2cc(-c3ccc4nc(C5CCN(C6CC6)CC5)[nH]c(=O)c4c3)ccc2n1 [Example 74, 2-(1-cyclopropylpiperidin-4-yl)-6-(2-methylimidazo[1,2-a]pyridin-6-yl)quinazolin-4(3H)-one] | ** (equal to or higher than 120% but lower than 150%) |
